The text below walks through data of patent US20250333398A1, “MONOARYL AND HETARYL SUBSTITUTED INDAZOLES AND BENZIMIDAZOLES AS STING ANTAGONISTS AND THE USE THEREOF AS MEDICAMENT” (Boehringer Ingelheim International GmbH, priority 2024, published 2025).

The test system of assay [1] is T1, wild-type (GRR) human STING cGAMP binding domain (residues 155-341).
T1 construct: His-TEV-hSTING (WT); TEV protease cleavage site (N); made in house; host or cells: E. coli BL21 DE3
In words: Differential Scanning Fluorimetry (DSF), stability of STING protein against thermal denaturation. Conditions: 100 uM compound, 3 uM target protein. The procedure: Dye fluorescence is quenched in aqueous environment and increases upon association of the dye with the hydrophobic parts of the unfolding protein. […] The inflection point of the curve represents the “melting” temperature of the protein (Tm) which is calculated numerically using the Boltzmann equation.
Method: The thermal stability of the STING protein was measured using a specific expression construct of the cGAMP binding domain of wild-type (GRR) human STING comprising residues 155-341 and a N-terminal 8x His-tag in assay buffer containing 20 mM Tris, 150 mM NaCl at pH7.5.
The assay uses Hard-Shell®PCR Plates 384-Well CLR/WHT (Catalog #HSP3805, BIO-RAD), Microseal®‘B’ Adhesive Seals for PCR Plates (Catalog #MSB-1001, BIO-RAD) and was run on a CFX384 Real-Time System (Bio-Rad).
A DMSO stock solution of SYPRO orange (SIGMA S5692-500UL) was prepared.
Compound stock solutions (10 mM in DMSO) were diluted 1:2 in DMSO to an intermediate compound concentration of 5 mM and then further diluted 1:40 in assay buffer resulting in a compound concentration of 125 μM and 2.5% DMSO.
Fluorescent dye stock solution (5000×SYPRO Orange) was then mixed with target protein and buffer to a concentration of 15 uM Protein and 25×SYPRO Orange. 2 ul of this protein-dye-mixture was added to 8 ul compound solution. Final volume was 10 uL. 3-6 well positions were used as negative control (protein with 2% DMSO). The plates were prepared for duplicate measurement and centrifuged for 2 min at 1000 g. In the measurement, 160 cycles of 0.5° C. were used (temperature ramp 15 s/cycle, 15° C. to 95° C.).
Final Assay concentrations for compound characterization were as follows:
100 uM compound, 3 uM target protein, 5×SYPRO Orange, 2% DMSO in 10 ul. All dispensing steps were performed using a HamiltonStar pipetting robot (Hamilton).
Dissociation curves were processed in Bio-Rad CFX Manager. Peak type was set to “negative”.
Compound codes for screen were assigned in the plate layout.
Two replicates of TM measurements were averaged, and the standard deviation was calculated. In cases of SD>1.5° C. the measurement was repeated.
The melting point (Tm) obtained for STING protein alone was subtracted from T obtained for protein incubated with ligand to generate ΔTm values.
Protein production and purification: The protein used for the biophysical experiments was a recombinant human STING protein comprising its cytosolic ectodomain. A codon optimized DNA sequence (for expression in Escherichia coli) encoding amino acid residues 155 to 341 (Swiss Prot Q86WV6) of human STING (WT) was synthesized by GeneArt (Regensburg, Germany) and inserted into a pET17b E. coli expression vector. The protein construct encodes an N-terminal 8× His-tag followed by tobacco etch virus protease (TEV) cleavage site and the above STING gene sequence. The resulting protein sequence for the used STING variant is listed below:
For expression of recombinant human STING above construct was transformed into E. coli BL21 DE3 strain and grown in shake flasks in LB-medium at 37° C. Expression was induced by addition of isopropyl β-D-1-thiogalactopyranoside to a final concentration of 1 mM and cultures shaken overnight. Cell pellets were centrifuged and stored at −70° C. until further use. Protein was purified by cell thawing in lysis buffer (20 mM TRIS-HCl, pH 8, 300 mM NaCl, 2 mM mercaptoethanol, 20 mM imidazole, Complete Protease Inhibitor (Roche) and DNase (Roche)), followed by metal affinity purification using Ni-NTA resins and elution buffer consisting of 20 mM TRIS-HCl, pH 8, 300 mM NaCl, 2 mM mercaptoethanol, 300 mM imidazole and size exclusion chromatography in running buffer (20 mM TRIS-HCl, pH 8, 100 mM NaCl, 2 mM DTT). The peak fraction was collected and concentrated to 2.5 mg/mL.

For the next assay, the system named is T2, STING.
T2 construct: from tissue; host or cells: human whole blood from healthy donors
Description: Human whole blood assay (HWBA), cGAMP-stimulated IFNα2α production. Format: cell-based. Conditions: human whole blood stimulated by cGAMP. The procedure:
For the detection of STING inhibition in physiological environment human whole blood was stimulated by the cyclic dinucleotide cGAMP. Pathway activity was monitored by measuring the IFNα2α production.
Assay method: Compounds were delivered as 10 mM DMSO solution and serial diluted and transferred to the 96-well Cell culture Plate (Corning #3595), prefilled with 20 μl OptiMEM (Gibco #11058-021) in each well, using an Echo acoustic dispenser. Typically, 8 concentrations were used with the highest concentration at 10 μM in the final assay volume followed by ^˜1:5 dilution steps. DMSO concentration was set to 0.1% in the final assay volume. The 96 well assay plate contained 9 test compounds, a reference compound and DMSO in control wells.
Collection of human whole blood from 3 or more healthy donors (male or female, no medication for 7 days, exception contraceptive and thyroxine) as Na-citrate blood (e.g. 3.8% in Monovettes from Sarstedt) is conducted in parallel. Whole blood was kept at room temperature for a maximum of 3 hours after collection until use in the assay.
160 μl of the whole blood samples were transferred to each well of the 96-well assay plates filled with compound/OptiMEM. All assay plates are prepared as duplicates with blood from different donors. Blood plates were kept at room temperature for 60 minutes and continuous shaking with 450 rpm, covered with the lid, but not sealed.
A 10× cGAMP assay solution was diluted from a 2 mM stock solution in 1×HBSS immediately before use at room temperature. 20 μl of the 10× cGAMP/HBSS were added to all compound and all high control wells, whereas HBSS only was added to all low control wells.
After covering assay plates with aera seals and the lid, blood plates were kept at room temperature for 30 minutes and continuous shaking with 450 rpm, followed by an overnight incubation of 22 h at 37° C. in the incubator, without shaking.
For the detection of IFNα-2α in human plasma, the biotinylated capture antibody (Antibody set IFNA2, Meso Scale Diagnostics #B21VH-3, including coating and capture antibody) was diluted 1:17.5 in Diluent 100 (Meso Scale Diagnostics #R50AA-4, according to the manufacturer. U-Plex MSD GOLD 96-well Small Spot Streptavidin SECTOR Plates (Meso Scale Diagnostics #L45SA-5) were coated with 25 μl diluted capture antibody. Coated plates were incubated for 60 min at room temperature under continuous shaking at 700 rpm. MSD IFNα-2α plates were washed three times with 150 μl wash buffer (1×HBSS, 0.05% Tween).
After blocking the plates with 100 μl block solution/well (1×HBSS with 0.2% Tween, 2% BSA) for 60 min at room temperature and continuous shaking at 700 rpm, plates were emptied as dry as possible by dumping just before continuing with the human plasma. Whole Blood assay plates were centrifuged at 1600 rpm for 10 minutes. 25 μl of supernatant was transferred with a pipetting robotics from each whole blood plate to the corresponding IFNα-2α plate. Plates were sealed with microplate seals and kept at room temperature again under continuous shaking at 700 rpm for two hours. Next MSD IFNα-2α plates were washed three times with 150 μl wash buffer (1×HBSS, 0.05% Tween), before adding 25 μl MSD SULFO-TAG IFNα-2α Antibody solution (1:100 diluted in Diluent 3 (Meso Scale Diagnostics #R50AP-2) to each well of the plates. Afterwards plates were sealed with microplate seals and kept at room temperature again under continuous shaking at 700 rpm for two hours. Finally, MSD IFNα-2α plates were washed three times with 150 μl wash buffer (1×HBSS, 0.05% Tween). 150 μl 2× Read buffer was added to each well and plates were immediately measured with the MSD Sector S600 Reader using the vendor barcode.
Data evaluation and calculation: For data evaluation and calculation, % control calculation of each well was based on the mean of high (cGAMP stimulated control) and mean of low (unstimulated control) controls by using the following formula: […]

On to `CNC(=O)c1ccc(-c2nc(-c3cccc4nn(-c5cn(C6CC6)nc5OC)cc34)c(C3CC3)n2C)c(OC(F)(F)F)c1` [Example 1, 4-{5-cyclopropyl-4-[2-(1-cyclopropyl-3-methoxy-1H-pyrazol-4-yl)-2H-indazol-4-yl]-1-methyl-1H-imidazol-2-yl}-N-methyl-3-(trifluoromethoxy)benzamide], for which, in assay [1], the “DSF ΔTm (K)” value turned out to be 28 K. The molecule also displayed an IC50 in the assay with STING of 82 nM.
The matching figures for `Cn1c(-c2ccc(P(C)(C)=O)cc2OC(F)(F)F)nc(-c2cccc3nn(-c4cc(C(F)(F)F)[nH]n4)cc23)c1C1CC1` [Example 21, 4-{5-cyclopropyl-2-[4-(dimethylphosphoryl)-2-(trifluoromethoxy)phenyl]-1-methylimidazol-4-yl}-2-[5-(trifluoromethyl)-1H-pyrazol-3-yl]indazole]: 29 K and 130 nM.
